Several values for one entry are separate records, joined by “and”; a condition that tells them apart may be missing. Identical values can stand only once.
Assay: Pharmacokinetic study, single subcutaneous dose, plasma by LC-MS/MS
Type: in vivo, mouse
Settings: for plasma concentration, individual mice: 1.2 mg/kg s.c.
Experimental: The pharmacokinetic profile of TYRA-300 in adult rats has been previously described ([31]). Because the FGFR3-driven skeletal dysplasia models are performed using neonatal mice, an experiment was designed to understand the pharmacokinetics of TYRA-300 at a relevant efficacious dose in male and female mice, ranging from 1 to 12 weeks of age. In this experiment, TYRA-300 plasma levels were measured following administration of a single 1.2 mg/kg subcutaneous dose. […] There was a similar AUCinf in 2-week-old mice (2,295 h × ng/mL). […] Cytochrome P450 enzymes are commonly responsible for the metabolism of TKIs. In mice, cytochrome P450s are not fully developed until the mice are at least 3 weeks of age ([33]), which may explain the higher level of TYRA-300 exposure in the younger mice.
C57BL/6J (The Jackson Laboratory) mice were randomized to treatment groups according to body weight. Owing to the young age of some groups, a mixture of female and male mice was used. Depending on the age of mice, 3–8 mice per group were dosed with a single subcutaneous dose of TYRA-300 (1.2 mg/kg) and then blood was collected either serially at 3 different time points (if 4 weeks of age and older) or terminally at a single time point (if 1–3 weeks of age). Mouse plasma was harvested using lithium heparin tubes at 0.5, 1, 4, 6, 8, 12, and 24 hours after dosing. Compound concentration from plasma was detected using liquid chromatography with tandem mass spectrometry at Oakland Analytics.

[1] = 1.2 mg/kg single s.c., 1-week-old mice

plasma concentration, individual mice (1 week old, 12 h, LLOQ 4 ng/mL): 37.7 ng/mL and 35.7 ng/mL and 49.1 ng/mL
plasma concentration, individual mice (1 week old, 24 h, LLOQ 4 ng/mL): 4 ng/mL (2×) and 5.11 ng/mL
plasma concentration, individual mice (1 week old, time 0 h, LLOQ 4 ng/mL): 4 ng/mL
plasma concentration, individual mice (2 weeks old, 0.5 h, LLOQ 8 ng/mL): 276 ng/mL and 247 ng/mL and 312 ng/mL
plasma concentration, individual mice (2 weeks old, 1 h, LLOQ 8 ng/mL): 442 ng/mL and 320 ng/mL and 190 ng/mL
plasma concentration, individual mice (2 weeks old, 4 h, LLOQ 8 ng/mL): 196 ng/mL and 308 ng/mL and 157 ng/mL
plasma concentration, individual mice (2 weeks old, 6 h, LLOQ 8 ng/mL): 148 ng/mL and 144 ng/mL and 232 ng/mL
plasma concentration, individual mice (2 weeks old, 8 h, LLOQ 8 ng/mL): 50.3 ng/mL and 95.4 ng/mL and 202 ng/mL
plasma concentration, individual mice (2 weeks old, 12 h, LLOQ 8 ng/mL): 42.2 ng/mL and 29.1 ng/mL and 34.4 ng/mL
plasma concentration, individual mice (2 weeks old, 24 h, LLOQ 8 ng/mL): 8 ng/mL and 10.2 ng/mL and 8.27 ng/mL
plasma concentration, individual mice (2 weeks old, time 0 h, LLOQ 8 ng/mL): 8 ng/mL
plasma concentration, individual mice (3 weeks old, 6 h, LLOQ 8 ng/mL): 8 ng/mL (3×) and 15 ng/mL
plasma concentration, individual mice (3 weeks old, 8 h, LLOQ 8 ng/mL): 8 ng/mL
plasma concentration, individual mice (3 weeks old, 12 h, LLOQ 8 ng/mL): 8 ng/mL (3×) and 9.31 ng/mL
plasma concentration, individual mice (3 weeks old, 24 h, LLOQ 8 ng/mL): 8 ng/mL
plasma concentration, individual mice (3 weeks old, time 0 h, LLOQ 8 ng/mL): 8 ng/mL
plasma concentration, individual mice (4 weeks old, 4 h, LLOQ 8 ng/mL): 39 ng/mL and 12 ng/mL (2×) and 10 ng/mL
plasma concentration, individual mice (4 weeks old, 6 h, LLOQ 8 ng/mL): 8 ng/mL (3×) and 16 ng/mL
plasma concentration, individual mice (4 weeks old, 8 h, LLOQ 8 ng/mL): 8 ng/mL
plasma concentration, individual mice (4 weeks old, 12 h, LLOQ 8 ng/mL): 8 ng/mL
plasma concentration, individual mice (4 weeks old, 24 h, LLOQ 8 ng/mL): 8 ng/mL
plasma concentration, individual mice (4 weeks old, time 0 h, LLOQ 8 ng/mL): 8 ng/mL
plasma concentration, individual mice (6 weeks old, time 0 h, LLOQ 8 ng/mL): 8 ng/mL
AUCinf of 3- through 12-week-old mice, times lower than average of 1- and 2-week-old mice (1.2 mg/kg single s.c.): about 3.8 times
maximum observed concentration [1]: 287 ng/mL
mean AUCinf [1]: 1,789 h*ng/mL
mean AUCinf (1.2 mg/kg single s.c., 2-week-old mice): 2,295 h*ng/mL
average AUCinf (1.2 mg/kg single s.c., 3- through 12-week-old mice): 538 ng·h/mL
SMILES: C[C@@H](Oc1ccc2[nH]nc(-c3ccc(N4CC5(C4)CN(S(C)(=O)=O)C5)nc3)c2c1)c1c(Cl)cncc1Cl [TYRA-300]
plasma concentration, individual mice (3 weeks old, 0.5 h, LLOQ 8 ng/mL): 250 ng/mL and 248 ng/mL and 229 ng/mL and 221 ng/mL
plasma concentration, individual mice (3 weeks old, 1 h, LLOQ 8 ng/mL): 293 ng/mL and 238 ng/mL and 250 ng/mL and 251 ng/mL
plasma concentration, individual mice (3 weeks old, 4 h, LLOQ 8 ng/mL): 10.2 ng/mL and 12.5 ng/mL and 17.9 ng/mL and 9.9 ng/mL
plasma concentration, individual mice (4 weeks old, 0.5 h, LLOQ 8 ng/mL): 102 ng/mL and 115 ng/mL and 172 ng/mL and 145 ng/mL and 197 ng/mL
plasma concentration, individual mice (4 weeks old, 1 h, LLOQ 8 ng/mL): 169 ng/mL and 242 ng/mL and 178 ng/mL and 48 ng/mL
plasma concentration, individual mice (6 weeks old, 0.5 h, LLOQ 8 ng/mL): 150 ng/mL and 198 ng/mL and 171 ng/mL and 172 ng/mL

Source: paper PMC12128972, “TYRA-300, an FGFR3-selective inhibitor, promotes bone growth in two FGFR3-driven models of chondrodysplasia” (JCI Insight, 2025)
